# Measured values from paper PMC5294914 (Cell host & microbe, 2016).
# pKd: −log10 of the molar value.
# Target: FmlH (Escherichia coli, UniProt A0A0H2V7F6)
# Experiment: solution binding study
structure (smiles),measurement,value
OC[C@H]1OC(O)[C@H](O)[C@@H](O)[C@H]1O (stereo partly drawn) [D-Gal],pKd,3.20
